Measured values from BindingDB's records for patent US20250313563 (The Broad Institute, 2025).
Where “and” joins values, the source holds several entries; their conditions need not be identical. Equal values may be shown once.

Key:
[1] = molecular target: Glycogen synthase kinase-3 alpha (Homo sapiens, UniProt P49840); test: TR-FRET Assay
Summary of the method: (§1)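 Kinase activity, measured after a 30-minute compound preincubation, was stopped with EDTA and quantified by TR-FRET using a Tb-labelled pSer641 antibody paired with streptavidin-d2.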

[2] = molecular target: Glycogen synthase kinase-3 beta (Homo sapiens, UniProt P49841); test: TR-FRET Assay
Summary of the method: as §1

Chain of Glycogen synthase kinase-3 beta (P49841 whole entry): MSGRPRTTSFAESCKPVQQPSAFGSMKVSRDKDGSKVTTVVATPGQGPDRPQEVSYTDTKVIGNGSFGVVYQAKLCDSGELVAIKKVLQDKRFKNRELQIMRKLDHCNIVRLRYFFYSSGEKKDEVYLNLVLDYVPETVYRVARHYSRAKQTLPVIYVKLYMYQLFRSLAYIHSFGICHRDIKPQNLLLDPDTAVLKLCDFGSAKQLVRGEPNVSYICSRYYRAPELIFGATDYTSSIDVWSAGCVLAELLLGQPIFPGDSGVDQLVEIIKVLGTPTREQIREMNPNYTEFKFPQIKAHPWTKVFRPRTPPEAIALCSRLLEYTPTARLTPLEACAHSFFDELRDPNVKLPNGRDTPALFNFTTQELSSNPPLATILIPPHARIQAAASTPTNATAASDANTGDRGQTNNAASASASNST
Chain of Glycogen synthase kinase-3 alpha (P49840 whole entry): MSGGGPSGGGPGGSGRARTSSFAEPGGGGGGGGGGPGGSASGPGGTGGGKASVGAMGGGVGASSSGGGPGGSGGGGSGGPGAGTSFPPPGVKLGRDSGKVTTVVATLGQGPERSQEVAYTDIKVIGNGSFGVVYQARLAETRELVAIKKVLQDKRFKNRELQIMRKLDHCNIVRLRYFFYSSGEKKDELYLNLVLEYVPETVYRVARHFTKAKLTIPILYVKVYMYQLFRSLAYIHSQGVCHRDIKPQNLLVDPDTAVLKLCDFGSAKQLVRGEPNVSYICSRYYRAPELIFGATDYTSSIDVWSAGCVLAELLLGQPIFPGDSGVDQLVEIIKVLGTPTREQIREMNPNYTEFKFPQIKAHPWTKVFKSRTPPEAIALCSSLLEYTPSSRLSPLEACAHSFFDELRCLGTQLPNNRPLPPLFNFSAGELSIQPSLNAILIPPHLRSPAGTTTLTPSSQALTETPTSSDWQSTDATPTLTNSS

Compound | IC50 [1] | IC50 [2]
CC[C@@]1(c2cccc(-c3cnn(CC4CCOC4)c3)c2)C2=CN=NC2NC2=C1C(=O)NC(C)(C)C2 (some centres not stated) [US20250313563, Compound 951836] | 0.1 to 1 µM | 1 to 5 µM
C[C@H]1CC(=O)C2=C(C1)NC1=C(CN=N1)[C@@]2(C)c1ccccc1 [US20250313563, Compound 789334] | 0.1 to 1 µM | 1 to 5 µM
CC[C@@]1(c2cccc(C3=C(C)SN(C)C3)c2)C2=CN=NC2NC2=C1C(=O)NC1(CCCC1)C2 (some centres not stated) [US20250313563, Compound 950255] | 0.1 to 1 µM | > 5 µM
Cc1cccc2c1CCC21C2=C(N=NC2)NC2=C1C(=O)CC(C)(C)C2 (configuration not stated) [US20250313563, Compound 806603] | < 0.1 µM | 0.1 to 1 µM
CC[C@@]1(c2cccc(-c3ccnc4cnccc34)c2)C2=CN=NC2NC2=C1C(=O)NC(C)(C)C2 (some centres not stated) [US20250313563, Compound 949110] | 1 to 5 µM | > 5 µM
CC1(C)CC(=O)C2=C(C1)NC1=NN=C(Br)C1C21CCNc2ccccc21 (configuration not stated) [US20250313563, Compound 810460] | 1 to 5 µM | > 5 µM
CC[C@]1(c2cccc(-c3c(C)nn(C)c3C)c2)C2=C(CC(C)(C)NC2=O)NC2N=NC(C)=C21 (some centres not stated) [US20250313563, Compound 947573] | 0.1 to 1 µM | 1 to 5 µM
CCC1(c2cccc(N(CC3CCCC3)C(C)=O)c2)C2=CN=NC2NC2=C1C(=O)CC(C)(C)C2 (configuration not stated) [US20250313563, Compound 912166] | < 0.1 µM | < 0.1 µM
CC[C@@]1(c2cccc(-c3cc(C)ncc3C)c2)C2=C(CC(C)(C)NC2=O)NC2N=NC(C(F)(F)F)=C21 (some centres not stated) [US20250313563, Compound 947364] | 0.1 to 1 µM | 0.1 to 1 µM
Cc1ccccc1CC(=O)N1CC2(C1)CC1(CO2)C2=C(N=NC2)NC2=C1C(=O)CC(C)(C)C2 (configuration not stated) [US20250313563, Compound 947295] | < 0.1 µM | < 0.1 µM
CC[C@@]1(c2cccc(-c3c(C)nn(C)c3C)c2)C2=CN=NC2NC2=C1C(=O)NC(C)(C)C2 (some centres not stated) [US20250313563, Compound 947408] | < 0.1 µM and 0.1 to 1 µM | < 0.1 µM and 1 to 5 µM
CC(=O)N1CCC2(C1)CC1(CO2)C2=C(N=NC2)NC2=C1C(=O)CC(C)(C)C2 (configuration not stated) [US20250313563, Compound 948040] | < 0.1 µM | 0.1 to 1 µM
CC[C@@]1(c2ccccc2)C2=C(N=NC2)NC2=C1C(=O)[C@@H]1CC[C@H]2C1 [US20250313563, Compound 791269] | 0.1 to 1 µM | 0.1 to 1 µM

Further lines, results first:

IC50 [1] | IC50 [2] | Compound
1 to 5 µM | > 5 µM | CC[C@@]1(c2cccc(S(C)(=O)=O)c2)C2=CN=NC2NC2=C1C(=O)CC(C)(C)C2 (some centres not stated) [US20250313563, Compound 826719]
1 to 5 µM | > 5 µM | CC[C@]1(c2cccc(OC)c2)C2=CN=NC2NC2=C1C(=O)CC(C)(C)C2 (some centres not stated) [US20250313563, Compound 811561]
< 0.1 µM | < 0.1 µM | CC[C@]1(c2cccc(N(C)C(C)=O)c2)C2=CN=NC2NC2=C1C(=O)CC(C)(C)C2 (some centres not stated) [US20250313563, Compound 810358]
< 0.1 µM | < 0.1 µM | CCC1(c2cccc(S(=O)(=O)CCOC)c2)C2=CN=NC2NC2=C1C(=O)CC(C)(C)C2 (configuration not stated) [US20250313563, Compound 918271]
0.1 to 1 µM | 1 to 5 µM | CC[C@@]1(c2cccc(-c3cc[n+]([O-])cc3[S+](C)[O-])c2)C2=CN=NC2NC2=C1C(=O)CC(C)(C)C2 (some centres not stated) [US20250313563, Compound 947570]
< 0.1 µM | 0.1 to 1 µM | CC[C@@]1(c2cccc(N(C)c3cccc(OC)n3)c2)C2=CN=NC2NC2=C1C(=O)CC(C)(C)C2 (some centres not stated) [US20250313563, Compound 932666]
< 0.1 µM | 0.1 to 1 µM | CCC1(c2cccc(-c3cnco3)c2)C2=CN=NC2NC2=C1C(=O)CC(C)(C)C2 (configuration not stated) [US20250313563, Compound 944025]
< 0.1 µM | < 0.1 µM | CCC1(c2cccc(-c3cn(C)nc3C)c2)C2=C(CC(C)(C)CC2=O)NC2N=NC(C)=C21 (configuration not stated) [US20250313563, Compound 884003]
